In brackets after ≈: the same amount, converted by molar mass. Like-named read-outs stand apart in the source and are kept apart here.
What was measured:
E. coli TrxR [1] = target: T1, E. coli TrxR (Escherichia coli, UniProt P0A9P4); assay: E. coli TrxR inhibition, thioredoxin dependent DTNB reduction assay; type: biochemical
Description: Further we examined the effect of ebselen in the reduction of disulfide by E. coli Trx and TrxR using both DTNB and insulin as substrates.
All the benzisoselenazol-3(2H)-one and bisbenzisoselenazol-3(2H)-one derivatives were tested as potential E. coli TrxR inhibitors by standard DTNB assay. […] The reactions were started by adding 1 mM DTNB to the mixture of 100 nM TrxR, 2 μM Trx, 240 μM NADPH, and different concentration of inhibitor (1-40 μM). […] The reactions were started by adding 6 nM TrxR at room temperature. Inhibition constants (Ki) for all the compounds were measured from Dixon plot, which plots 1/v versus […], I=Inhibitor concentration).

[2] = Glutathione peroxidase (GPx) activity of the compounds; type: biochemical; conditions: relative; EbSe 6 = 1
HEK 293T cells = HEK 293T cells growth (cytotoxicity); type: cell-based
Gor DHB4 E. coli = assay: Inhibition of bacterial growth (MIC), Gor DHB4 E. coli; conditions: for MIC: Escherichia coli, DHB4E.COLI, read-out: MIC for Gor DHB4 E. coli
Description: (§1) Here E. coli DHB4 strains wt, gshA^−, gor^−, oxyR^− were used as the model to test the antibiotics activity of these ebselen derivatives.

gshA^− DHB4 E. coli = assay: Inhibition of bacterial growth (MIC), gshA^− DHB4 E. coli; conditions: for MIC: Escherichia coli, read-out: MIC for gshA^− DHB4 E. coli
Description: as §1

wild type DHB4 E. coli = assay: Inhibition of bacterial growth (MIC), wild type DHB4 E. coli; conditions: for MIC: Escherichia coli, DHB4E.COLI, read-out: MIC for wild type DHB4 E. coli
Description: as §1

recombinant rat TrxR = target: T2, recombinant rat TrxR (Rattus norvegicus, UniProt O89049); assay: Inhibition of mammalian (recombinant rat) TrxR
T2 sequence (O89049 1-499): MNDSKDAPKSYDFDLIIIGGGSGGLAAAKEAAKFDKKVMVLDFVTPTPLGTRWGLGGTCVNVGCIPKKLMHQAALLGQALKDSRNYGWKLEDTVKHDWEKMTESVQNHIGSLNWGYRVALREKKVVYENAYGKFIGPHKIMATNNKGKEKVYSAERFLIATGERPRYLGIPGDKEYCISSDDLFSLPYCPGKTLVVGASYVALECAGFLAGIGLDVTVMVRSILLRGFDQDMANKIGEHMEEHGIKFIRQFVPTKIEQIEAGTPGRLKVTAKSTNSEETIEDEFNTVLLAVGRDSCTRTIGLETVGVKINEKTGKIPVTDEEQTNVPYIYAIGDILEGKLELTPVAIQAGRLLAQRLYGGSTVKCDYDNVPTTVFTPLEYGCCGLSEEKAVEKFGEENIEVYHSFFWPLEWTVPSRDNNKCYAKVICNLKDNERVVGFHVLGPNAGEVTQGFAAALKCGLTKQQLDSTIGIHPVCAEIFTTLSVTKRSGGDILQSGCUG

H. pylori strains = assay: MIC against H. pylori strains; conditions: Helicobacter pylori
Mammalian TrxR = target: T3, Mammalian TrxR (Homo sapiens, UniProt Q16881); assay: Kinetic parameters with mammalian TrxR; type: biochemical; conditions: sulphur analogues
T3 sequence (Q16881 151-649 limits assumed): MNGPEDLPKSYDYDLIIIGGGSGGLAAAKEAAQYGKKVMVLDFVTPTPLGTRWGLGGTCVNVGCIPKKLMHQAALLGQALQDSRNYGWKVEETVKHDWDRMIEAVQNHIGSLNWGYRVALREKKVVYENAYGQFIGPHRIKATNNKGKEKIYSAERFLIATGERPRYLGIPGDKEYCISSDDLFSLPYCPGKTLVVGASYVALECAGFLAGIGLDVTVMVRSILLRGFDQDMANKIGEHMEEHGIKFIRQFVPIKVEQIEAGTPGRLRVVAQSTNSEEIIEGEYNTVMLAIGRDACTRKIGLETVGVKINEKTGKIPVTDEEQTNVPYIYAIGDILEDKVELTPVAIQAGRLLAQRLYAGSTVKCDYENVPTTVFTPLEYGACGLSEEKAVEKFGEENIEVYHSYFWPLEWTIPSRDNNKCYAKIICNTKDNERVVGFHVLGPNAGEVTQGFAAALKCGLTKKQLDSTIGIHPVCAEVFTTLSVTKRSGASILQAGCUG

E. coli TrxR [3] = target: T1, E. coli TrxR; assay: Kinetic parameters (substrate) with E. coli TrxR; type: biochemical
E. coli = type: cell-based, Escherichia coli; conditions: 16 h
[4] = Dixon plot, 6 nM TrxR, Trx 1, 2 or 4 μM
[5] = DTNB assay, 100 nM TrxR, 2 μM Trx, 240 μM NADPH, 1 mM DTNB, read-out: IC50 for E. coli TrxR
[6] = Dixon plot, 6 nM TrxR, Trx 1, 2 or 4 μM, read-out: Ki for E. coli TrxR
[7] = Homo sapiens, HEK-293T; read-out: IG50 for HEK 293T
[8] = Homo sapiens, HEK-293T, read-out: IG50 for HEK 293T

T1 sequence (P0A9P4 whole entry): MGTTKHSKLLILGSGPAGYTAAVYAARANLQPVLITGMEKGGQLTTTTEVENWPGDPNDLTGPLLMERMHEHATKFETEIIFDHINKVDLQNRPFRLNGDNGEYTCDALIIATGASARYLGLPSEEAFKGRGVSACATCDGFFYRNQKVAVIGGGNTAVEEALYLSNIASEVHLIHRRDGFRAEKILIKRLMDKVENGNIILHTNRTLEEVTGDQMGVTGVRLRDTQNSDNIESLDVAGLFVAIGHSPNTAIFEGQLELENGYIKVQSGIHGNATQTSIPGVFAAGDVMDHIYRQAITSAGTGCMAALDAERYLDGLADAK

**Q.** With O=c1c2ccccc2[se]n1-c1ccc(Cl)cc1 [EbSe 11] as the compound, how does the IC50 (E. coli TrxR [1]) read?
**A.** > 40 µM

**Q.** What about the Ki (E. coli TrxR [1]) of the same compound?
**A.** 0.3 µM

**Q.** What about the “Ki for E. coli TrxR” value (E. coli TrxR [1]; [4]) of the same compound?
**A.** Not detected

**Q.** And the “Relative GPx activity” value [2]?
**A.** 0.87

**Q.** And the IC50 (HEK 293T cells; read-out: IG50 for HEK 293T)?
**A.** > 160 µM

**Q.** And the “MIC for Gor DHB4 E. coli” value (Gor DHB4 E. coli)?
**A.** No Inhibition

**Q.** And the “MIC for gshA^− DHB4 E. coli” value (gshA^− DHB4 E. coli)?
**A.** No Inhibition

**Q.** And the “MIC for wild type DHB4 E. coli” value (wild type DHB4 E. coli)?
**A.** No Inhibition

**Q.** Which IC50 (E. coli TrxR [1]; [5]) does the source give for NCCn1[se]c2ccccc2c1=O [EbSe5] here?
**A.** 2.12 µM

**Q.** And the Ki (E. coli TrxR [1]; [6])?
**A.** 0.035 µM

**Q.** For Cn1[se]c2ccccc2c1=O [EbSe 3], which IC50 (E. coli TrxR [1]; [5]) is on record?
**A.** 15 µM

**Q.** What about the “Ki for E. coli TrxR” value (E. coli TrxR [1]; [4]) of the same compound?
**A.** Not detected

**Q.** What about the “Relative GPx activity” value [2] of the same compound?
**A.** 1.2

**Q.** What about the IC50 (HEK 293T cells; [7]) of the same compound?
**A.** 100 µM

**Q.** What about the IC50 (recombinant rat TrxR) of the same compound?
**A.** > 10 µM

**Q.** For CCOC(=O)c1cccnc1[Se]Nc1ccc(Cl)cc1 [EbSe 22], which IC50 (E. coli TrxR [1]; [5]) is on record?
**A.** > 10 µM

**Q.** And the Ki (E. coli TrxR [1]; [6])?
**A.** 7.5 µM

**Q.** With Cc1ncc([N+](=O)[O-])n1CCO [metronidazole] as the compound, how does the MIC (H. pylori strains) read?
**A.** 6.25 µg/mL (≈ 36.5 µM)

**Q.** What about the MIC (H. pylori strains; NCTC11637) of the same compound?
**A.** 0.78 µg/mL (≈ 4.56 µM)

**Q.** With CCOC(=O)c1cccnc1[Se]Nc1ccc(Cl)cn1 [compound 2] as the compound, how does the IC50 (E. coli TrxR [1]; [5]) read?
**A.** > 10 µM

**Q.** And the Ki (E. coli TrxR [1]; [6])?
**A.** 7.5 µM

**Q.** What about the IC50 (HEK 293T cells; [8]) of the same compound?
**A.** 60 µM

**Q.** What about the “MIC for Gor DHB4 E. coli” value (Gor DHB4 E. coli) of the same compound?
**A.** No Inhibition

**Q.** And the “MIC for gshA^− DHB4 E. coli” value (gshA^− DHB4 E. coli)?
**A.** No Inhibition

**Q.** What about the “MIC for wild type DHB4 E. coli” value (wild type DHB4 E. coli) of the same compound?
**A.** No Inhibition

**Q.** With O=c1c2ccccc2[se]n1-c1ccc(Cl)cc1 [EbSe 7] as the compound, how does the IC50 (E. coli TrxR [1]; [5]) read?
**A.** 7 µM

**Q.** And the Ki (E. coli TrxR [1]; [6])?
**A.** 0.55 µM

**Q.** And the “Relative GPx activity” value [2]?
**A.** 0.64

**Q.** What about the IC50 (HEK 293T cells; [7]) of the same compound?
**A.** 120 µM

**Q.** And the IC50 (recombinant rat TrxR)?
**A.** > 10 µM

**Q.** What about the MIC (Gor DHB4 E. coli) of the same compound?
**A.** 23 µM (≈ 7.1 µg/mL)

**Q.** And the MIC (gshA^− DHB4 E. coli)?
**A.** 20 µM (≈ 6.17 µg/mL)

**Q.** And the MIC (wild type DHB4 E. coli)?
**A.** 34 µM (≈ 10.5 µg/mL)

**Q.** What does the source list for O=C(Nc1ccccc1)c1ccccc1SSc1ccccc1C(=O)Nc1ccccc1 [(EbS)2]?
**A.** Km (Mammalian TrxR): 47 µM; kcat, mammalian TrxR (Mammalian TrxR): 25 s⁻¹; Km (E. coli TrxR [3]): 27.6 µM; kcat, E. coli TrxR (E. coli TrxR [3]): 1.67 s⁻¹

**Q.** Which IC50 (E. coli TrxR [1]; [5]) does the source give for O=c1c2ccccc2[se]n1CCCCCCn1[se]c2ccccc2c1=O [EbSe 16] here?
**A.** 2.25 µM

**Q.** What about the Ki (E. coli TrxR [1]; [6]) of the same compound?
**A.** 0.025 µM

**Q.** And the Ki (E. coli TrxR [1]; for the selenium released stock, read-out: Ki for E. coli TrxR, selenium released stock)?
**A.** 0.01 µM

**Q.** And the IC50 (HEK 293T cells; [8])?
**A.** 9.2 µM

**Q.** And the MIC (Gor DHB4 E. coli)?
**A.** 35 µM (≈ 16.7 µg/mL)

**Q.** What about the “sensitivity of gshA^− / gor^− strains compared with wild type” value (gshA^− DHB4 E. coli; E. coli strains wt, gshA^−, gor^−) of the same compound?
**A.** same sensitivity

**Q.** And the MIC (gshA^− DHB4 E. coli)?
**A.** 20 µM (≈ 9.57 µg/mL)

**Q.** What about the MIC (wild type DHB4 E. coli) of the same compound?
**A.** 20 µM (≈ 9.57 µg/mL)

**Q.** Which IC50 (E. coli TrxR [1]; [5]) does the source give for O=C(O)c1ccc(-n2[se]c3ccccc3c2=O)cc1 [EbSe 10] here?
**A.** 15 µM

**Q.** What about the “Ki for E. coli TrxR” value (E. coli TrxR [1]; [4]) of the same compound?
**A.** Not detected

**Q.** What about the “Relative GPx activity” value [2] of the same compound?
**A.** 1.8

**Q.** What about the IC50 (HEK 293T cells; [7]) of the same compound?
**A.** 55 µM

**Q.** And the IC50 (recombinant rat TrxR)?
**A.** > 10 µM

**Q.** With O=[N+]([O-])[O-].[Ag+] [silver, Silver nitrate] as the compound, how does the “MIC, silver alone” value (E. coli) read?
**A.** about 42 μM

**Q.** And the MIC for silver (E. coli; in the presence of 2 μM ebselen)?
**A.** 8.4 µM

**Q.** What about the “silver concentration that inhibited E. coli growth” value (E. coli; in the presence of 8 μM ebselen) of the same compound?
**A.** 1 µM
